Data as given in US12060588B2, “Methods of editing DNA methylation” (Whitehead Institute for Biomedical Research, priority 2016, dated 2024).

Tested on: RHOXF2 promoter region
Test: Comparison of dCas9- and TALE-based methylation editing, RHOXF2 promoter, bisulfite sequencing in HEK293T cells
Type: cell-based
Description: FIGS. 10A-10G depict comparison of TALE- and dCas9-based methylation editing. […] Transfection positive cell populations (cherry+) or (GFP+) were FACS sorted 48-hour post-transfection. Methylation levels of each individual CpG in the p16 promoter region were analyzed by bisulfite sequencing. Shown is the mean percentage±SD of two biological replicates with a total of 34 single colonies sequenced for dCas9-Dnmt3a and 31 single colonies sequenced for TALE-Dnmt3a. Red arrow indicates the position of p16 target gRNA, and purple arrow indicates the binding site for TALE-Dnmt3a. FIG. 10B depicts HEK293T cells were co-transfected with dCas9-Tet1 and one RHOXF2 target gRNA (with puro cassette) or TALE-Tet1 with a puro cassette expressing plasmid. Puromycin (2 ug/ml) was added to the culture medium to select for transfection positive cells. Cells were harvested after 2-day selection for analysis of methylation levels for individual CpGs in the RHOXF2 promoter region by bisulfite sequencing. Shown is the mean percentage±SD of two biological replicates with a total of 34 single colonies sequenced for dCas9-Tet1 and 38 single colonies sequenced for TALE-Tet1. Red arrow indicates the position of RHOXF2 target gRNA, and purple arrow indicates the binding site for […]. […]

## dCas9-Tet1: catalytically inactive Cas9 (dCas9) fused through NLS to the Tet1 catalytic domain, SEQ ID NO: 159; lentivirally expressed with gRNAs
CpGs with change of methylation greater than 10%
  region (effective range) of methylation decrease in the RHOXF2 promoter: 150 bp
One single gRNA or TALE at the same site, 2-day puromycin selection
  average decrease of methylation in the RHOXF2 promoter: 28%
